The results in this text go back to PubChem BioAssay (NCI).

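Growth conditions: 96-well plates. Treatment: test compound, 48 hours, 5 concentrations. Analysis: linear interpolation between bracketing concentrations; unreached endpoints set to highest concentration. At the GI50, growth is halved. TGI: concentration producing complete growth inhibition.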

What all share (test): inhibition of tumour cell growth, NCI panel, 48 h
Experiment [1] concerns SK-MEL-5 melanoma.
Experiment [2] deals with NCI-H460 lung.
Experiment [3] has as its system SNB-19 CNS.
For experiment [4], the system named is OVCAR-5 ovarian.
In experiment [5] the test system is MALME-3M melanoma.
The test system of experiment [6] is HCT-116 colon.
The subject of experiment [7] is RPMI-8226 leukemia.
In experiment [8] the test system is UACC-257 melanoma.
Experiment [9] concerns A549 NSCLC.
The test system of experiment [10] is IGROV1 ovarian.

As for `CC1Cc2c(Cl)ncnc2N(C)c2ccc(Cl)cc21` (stereo not drawn), the GI50 was 0.185 µM in [1]; 0.381 µM in [2]; 0.636 µM in experiment [3]; 0.592 µM in experiment [4]; 0.276 µM in [5]; 0.314 µM in experiment [6]. For the same compound, the GI50 in [7] is 0.441 µM; in [8], 0.429 µM; in [9] it was 0.378 µM; in experiment [10], 0.468 µM. The TGI was 0.338 µM in [1]; more than 100 µM in experiment [2]; more than 100 µM in experiment [3]; more than 100 µM in experiment [4]; 3.67 µM in [5]; 12.6 µM in experiment [6]. In addition, the TGI in experiment [7] is 17.1 µM; in [8], 78.5 µM; in experiment [9], more than 100 µM; in experiment [10], more than 100 µM.

As to `Nc1nc(/C=C\c2ccc([N+](=O)[O-])s2)nc(N2CCN(c3ccccc3)CC2)n1`, the GI50 in experiment [1] was 0.157 µM; in experiment [2] it was 24.1 µM; in experiment [3], 30.5 µM; in [4] it was 40 µM; in experiment [5] it was 24.9 µM; in [6] it was 17.2 µM. Moreover, the GI50 in [7] was 22.9 µM; in [8], 20.8 µM; in experiment [9], 33.6 µM; in experiment [10], 14.5 µM. In addition, the TGI in experiment [2] was determined as 59.1 µM; in experiment [3] it was 77 µM; in [4], 98.3 µM; in experiment [5], 59.8 µM; in experiment [6], 31.5 µM; in experiment [7], 74 µM. In addition, the values for the TGI in [8], in experiment [9] and in [10] were 44.2 µM, more than 100 µM and 34.7 µM, respectively.

`Cc1cnc2n1S(=O)(=O)c1cc(C(=O)Nc3cccc4nsnc34)c(Cl)cc1S2`: the GI50 is 26.4 µM in [1]; 18 µM in [2]; 27.2 µM in experiment [3]; 54 µM in [4]; 13.9 µM in [5]; 20.1 µM in [6]. For the same compound, the GI50 in experiment [7] is 17.4 µM; in [8], 19.1 µM; in experiment [9] it was 46.9 µM; in experiment [10] it was 31.2 µM. The TGI was 98.1 µM in experiment [1]; 37.7 µM in [2]; 60.8 µM in experiment [3]; more than 100 µM in [4]; 40.9 µM in experiment [5]; 35.6 µM in experiment [6]. Also, the TGI in [7] is 39.7 µM; in experiment [8], 38.3 µM; in [9] it was more than 100 µM; in experiment [10], more than 100 µM.

On to `CCOC(OC(C)=O)[C@@H]1C=C[C@H](C)N(c2ccc([N+](=O)[O-])cc2)O1` (stereo partly drawn), for which the TGI in experiment [1] amounted to 13.4 µM; in experiment [2] it was 34.2 µM; in experiment [3], 37.4 µM; in experiment [4], 10.4 µM; in experiment [5], 20.1 µM; in experiment [6], 2.61 µM. The TGI was 5.45 µM in experiment [7], 26.9 µM in experiment [8], 43.4 µM in experiment [9] and 29 µM in experiment [10].

`COc1c/c(=C2\C=c3ccccc3=N2)[nH]/c1=C\c1[nH]c(C)cc1C`: the GI50 in [1] was less than 0.0105 µM; in [2] it was 0.0268 µM; in experiment [3], 2.99 µM; in experiment [4], 0.25 µM; in experiment [5], 0.0328 µM; in [6], less than 0.0368 µM. Moreover, the GI50 in experiment [7] is less than 0.0151 µM; in experiment [8], 0.628 µM; in experiment [9] it was 0.139 µM; in experiment [10], 0.102 µM. The TGI is 0.0352 µM in [1]; more than 100 µM in [2]; more than 88.7 µM in experiment [3]; more than 56.5 µM in experiment [4]; 1.71 µM in experiment [6]; 2.9 µM in experiment [7]. In addition, the TGI came to 32.7 µM in experiment [8], 19.2 µM in experiment [9] and 17.7 µM in experiment [10].

On to `O=C(C(=O)c1cc2ccccc2[nH]1)c1cc2ccccc2[nH]1`, for which the TGI in [1], in experiment [2], in [3], in [4], in experiment [5] and in experiment [6] was more than 347 µM each time. Also, the TGI is more than 110 µM in experiment [7], more than 347 µM in experiment [8], more than 347 µM in [9] and more than 347 µM in experiment [10].

Consider `O=C(O)CCNCC(=O)O`, for which the TGI in experiment [1], in experiment [2], in experiment [3], in [4], in experiment [5] and in experiment [6] was more than 100 µM in each case. The TGI in experiment [7], in experiment [8], in experiment [9] and in experiment [10] was more than 100 µM throughout.

On to `Cc1c(-c2cnccn2)ssc1=S`, for which the TGI in experiment [1], in experiment [2], in experiment [3], in experiment [4], in [5] and in [6] was more than 100 µM each time. In addition, the TGI in experiment [7] is more than 100 µM; in experiment [8], 38.1 µM; in experiment [9] it was more than 100 µM; in experiment [10], more than 100 µM.

`CC(C)C[C@H](NC(=O)CNC(=O)c1cc(Cl)ccc1Cl)B(O)O`: the GI50 is less than 0.0136 µM in experiment [1]; 0.0831 µM in experiment [2]; 0.273 µM in experiment [3]; 0.0493 µM in experiment [4]; less than 0.0115 µM in experiment [5]; less than 0.0131 µM in [6]. The GI50 in [7] was less than 0.01 µM; in experiment [8], 0.0153 µM; in [9], 0.046 µM; in experiment [10], 0.0498 µM. Further, the TGI in [1] is 0.0305 µM; in experiment [2] it was 0.919 µM; in experiment [3], more than 87.8 µM; in experiment [4], 0.551 µM; in experiment [5], 0.035 µM; in [6], 0.659 µM. The TGI in experiment [7] amounted to 0.0162 µM; in [8] it was 0.0492 µM; in experiment [9], 7.6 µM; in [10], 0.283 µM.

`CCC[C@H]1O[C@@H]2CC(=O)O[C@@H]2C2=C1C(=O)C=CC2=O`: the TGI is 36 µM in [1]; more than 100 µM in experiment [2]; more than 100 µM in [3]; 36 µM in experiment [4]; 32.3 µM in [5]; 32.1 µM in experiment [6]. Besides, the TGI in experiment [7] was 74.6 µM; in experiment [8], 34.8 µM; in [9], more than 58.1 µM; in experiment [10] it was 32.1 µM.

Consider `CCOC(=O)C1=CCCC[C@H]1S(=O)(=O)Nc1ccc(F)cc1Cl`, for which the GI50 in experiment [1] is 10.5 µM; in experiment [2], 22.4 µM; in [3] it was 29.4 µM; in [4], 25 µM; in experiment [5], 24.4 µM; in experiment [6], 25 µM. Besides, the GI50 in experiment [7] was 20.5 µM; in experiment [8] it was 35.8 µM; in experiment [9], 35.4 µM; in [10] it was 31 µM. Moreover, the TGI in experiment [1] is 24.5 µM; in experiment [2], 82.1 µM; in experiment [3], more than 100 µM; in experiment [4] it was 77.1 µM; in [5] it was 85.2 µM; in [6], 95.3 µM. Besides, the TGI was 67.6 µM in experiment [7], more than 100 µM in [8], more than 100 µM in experiment [9] and more than 100 µM in [10].

As for `C=C(C)[C@H]1CC[C@@]2(C)C(C1)[C@H](C)CC[C@@H]2O` (stereo partly drawn), the TGI in experiment [1], in [2], in experiment [3], in [4], in experiment [5] and in experiment [6] was more than 100 µM throughout. The TGI in [7], in experiment [8], in experiment [9] and in experiment [10] was more than 100 µM each time.

As for `O=c1c2ccccc2sc2c(NCCCNCCO)nc3ccccc3c12`, the GI50 in [1] was 1.64 µM; in experiment [2] it was 0.605 µM; in [3], 2.02 µM; in [4], 1.56 µM; in [5], 1.58 µM; in [6], 1.3 µM. For the same compound, the GI50 is 1.92 µM in experiment [7], 1.93 µM in experiment [8], 1.53 µM in experiment [9] and 1.35 µM in [10]. The TGI was determined as 3.03 µM in experiment [1]; 2.01 µM in experiment [2]; 5.13 µM in experiment [3]; 3.31 µM in [4]; 3.3 µM in experiment [5]; 2.6 µM in experiment [6]. The TGI came to 4.89 µM in experiment [7], 3.6 µM in [8], 3.41 µM in experiment [9] and 3.17 µM in experiment [10].

Regarding `Cc1nc2sccn2c1C(=O)NN`, the TGI in [1], in experiment [2], in [3], in [4], in experiment [5] and in [6] was more than 100 µM in each case. The TGI in experiment [7], in experiment [8], in experiment [9] and in experiment [10] was more than 100 µM each time.

Take `O=C1[C@H]2ON(c3ccccc3)C(c3ccc([N+](=O)[O-])cc3)[C@H]2C(=O)N1c1ccc(Cc2ccc(N3C(=O)[C@@H]4ON(c5ccccc5)C(c5ccc([N+](=O)[O-])cc5)[C@@H]4C3=O)cc2)cc1` (stereo partly drawn): the TGI in experiment [1], in [2], in experiment [3], in [4], in experiment [5] and in experiment [6] was more than 100 µM in each case. For the same compound, the TGI in experiment [7], in experiment [8], in [9] and in experiment [10] was more than 100 µM in each case.

Take `CC(C)(C)C(=O)OCOP(=O)(NCc1ccccc1)C1CCCN(O)C1=O` (stereo not drawn): the GI50 in [1] is 1.76 µM; in experiment [2], 1.75 µM; in experiment [3], 3.12 µM; in experiment [4], 8.99 µM; in experiment [5], 1 µM; in [6], 2.84 µM. Besides, the GI50 in [7] is 2.25 µM; in experiment [8] it was 5.11 µM; in experiment [9] it was 2.79 µM; in [10], 2.91 µM. Besides, the TGI was 4.33 µM in [1]; 15.5 µM in experiment [2]; 24.9 µM in experiment [3]; more than 100 µM in experiment [4]; 6.96 µM in [5]; 14.4 µM in experiment [6]. For the same compound, the TGI in experiment [7] was 7.28 µM; in experiment [8] it was 55.4 µM; in experiment [9], more than 100 µM; in experiment [10], 9.59 µM.

Turning to `CCc1cccc(C(C)C)c1NC(=O)C(=O)C1C(=O)Nc2ccccc2S1=O` (stereo not drawn), the TGI in [1], in experiment [2], in experiment [3], in [4], in [5] and in experiment [6] was more than 100 µM each time. Further, the TGI in [7], in experiment [8], in experiment [9] and in experiment [10] was more than 100 µM in each case.

Turning to `CN(Cc1ccccc1)Cn1ccnc1`, the TGI in experiment [1] is more than 63.4 µM; in experiment [2] it was more than 80.6 µM; in experiment [3] it was more than 100 µM; in experiment [4] it was more than 100 µM; in experiment [5], 50.4 µM; in experiment [6], more than 100 µM. The TGI in experiment [7] was more than 78.1 µM; in [8] it was 47.4 µM; in experiment [9], more than 100 µM; in experiment [10], more than 100 µM.

For the compound `NS(=O)(=O)OC[C@H]1C[C@@H](Nc2ccnc3cc(-c4cccc(SC(F)(F)F)c4)nn23)[C@H](O)[C@@H]1O`, the GI50 in experiment [1] is 0.0133 µM; in experiment [2] it was 0.259 µM; in experiment [3], 0.0301 µM; in experiment [4] it was 0.0578 µM; in experiment [5], 0.0275 µM; in experiment [6], 0.0159 µM. Moreover, the GI50 is 0.641 µM in experiment [7], 0.0278 µM in [8], 0.206 µM in [9] and 0.111 µM in experiment [10]. Further, the TGI in [1] was 0.0278 µM; in experiment [2], 0.679 µM; in experiment [3], 0.0902 µM; in experiment [4], 2.83 µM; in [5], 0.0652 µM; in experiment [6], 0.0571 µM. For the same compound, the TGI in experiment [7] came out at 3 µM; in experiment [8], 0.108 µM; in experiment [9], 0.445 µM; in experiment [10] it was 0.673 µM.
